According to ChEMBL document CHEMBL4477229, “Design and Characterization of Superpotent Bivalent Ligands Targeting Oxytocin Receptor Dimers via a Channel-Like Structure” (J Med Chem, 2016):
Where a chain is given by its changes, count along the chain named. pEC50: −log10 of the molar value. The source made the active and inactive calls. The rule behind the calls is not given here. Numbered stars: 1 amine (or outer) side, 2 acyl side, 3 side chain; on linkers, the order of the positions; unused ones are H or OH. Bridge positions count the residues as written; N and C are the ends. Square brackets hold non-standard residues; d marks the D form. Peptide text beside a SMILES is read from it. I, II: the chains in the order shown. * marks the point of attachment. Sebacoyl = O=C(CCCCCCCCC(=O)[*:2])[*:1]; C14 diacid = O=C(O)CCCCCCCCCCCCC(=O)*; C12 diacid = O=C(O)CCCCCCCCCCC(=O)*; Adipoyl = O=C(CCCCC(=O)[*:2])[*:1]; Octanoyl = CCCCCCCC(=O)*; Mpa = O=C(O)CCS

Tests used:
Mus musculus = assay: Effect on social behavior in OXTR+/- DBA/2J mouse assessed as increase in time spent exploring stranger mouse over time spent exploring empty cage at 0.5 ng/mouse, icv administered as single dose measured for 10 mins by three chamber method; format: functional, organism-based
Danio rerio = assay: Effect on social behavior in zebra fish assessed as increase in time spent swimming parallel to nacre mutant fish over time spent shoaling close to wild type fish at 0.75 ng/kg, im; format: functional, organism-based
[1] = tested on: T1, Oxytocin receptor (Homo sapiens), P30559 [V43A,C47A]; assay: (§1) Agonist activity at human oxytocin receptor V43A/C47A double mutant expressed in HEK293 cells coexpressing Rluc8-tagged Galphaq, N-terminal GFP-tagged Ggamma2 and Gbeta1 protein incubated for 2 mins by Gq protein activation based BRET assay; format: cell-based; set-up: unit not given here
T1 sequence (whole entry): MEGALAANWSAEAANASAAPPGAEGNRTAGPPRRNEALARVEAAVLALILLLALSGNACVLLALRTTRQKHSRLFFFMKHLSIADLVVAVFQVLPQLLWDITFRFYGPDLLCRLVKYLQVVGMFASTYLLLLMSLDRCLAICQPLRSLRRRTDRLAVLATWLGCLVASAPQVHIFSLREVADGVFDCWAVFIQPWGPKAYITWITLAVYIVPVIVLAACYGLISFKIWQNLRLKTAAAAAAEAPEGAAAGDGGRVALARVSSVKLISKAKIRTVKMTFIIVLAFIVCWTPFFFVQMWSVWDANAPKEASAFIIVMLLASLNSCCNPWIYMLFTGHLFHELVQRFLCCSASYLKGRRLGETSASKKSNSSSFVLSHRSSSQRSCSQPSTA

Oxytocin receptor [2] = molecular target: T2, Oxytocin receptor (Homo sapiens, UniProt P30559, C47A/V43A); assay: as §1; format: cell-based
Oxytocin receptor [3] = molecular target: T3, Oxytocin receptor (Homo sapiens, UniProt P30559, C47A); assay: (§2) Agonist activity at human oxytocin receptor C47A mutant expressed in HEK293 cells coexpressing Rluc8-tagged Galphaq, N-terminal GFP-tagged Ggamma2 and Gbeta1 protein incubated for 2 mins by Gq protein activation based BRET assay; format: cell-based
[4] = tested on: T4, Oxytocin receptor (Homo sapiens), P30559 [C47A]; assay: as §2; format: cell-based; set-up: unit not given here
T4 sequence (whole entry): T1 sequence (whole entry) with A43V

[5] = molecular target: T5, Oxytocin receptor (Homo sapiens) (UniProt P30559); assay: (§3) Agonist activity at human oxytocin receptor expressed in HEK293 cells coexpressing Rluc8-tagged Galphaq, N-terminal GFP-tagged Ggamma2 and Gbeta1 protein incubated for 2 mins by Gq protein activation based BRET assay; format: cell-based; set-up: unit not given here
T5 sequence (whole entry): T1 sequence (whole entry) with A43V, A47C

Oxytocin receptor [6] = molecular target: T6, Oxytocin receptor (Homo sapiens, UniProt P30559); assay: as §3; format: cell-based
T6 sequence (P30559 whole entry): T1 sequence (whole entry) with A43V, A47C

[7] = molecular target: T5, Oxytocin receptor (Homo sapiens); assay: (§4) Agonist activity at human oxytocin receptor expressed in HEK293 cells coexpressing Rluc8-tagged Galphaq, N-terminal GFP-tagged Ggamma2 and Gbeta1 protein incubated for 2 mins in presence of TMH5-TAT peptide by Gq protein activation based BRET assay; format: cell-based; set-up: unit not given here
Oxytocin receptor [8] = molecular target: T6, Oxytocin receptor; assay: as §4; format: cell-based
Oxytocin receptor [9] = molecular target: T3, Oxytocin receptor; assay: Agonist activity at human oxytocin receptor C47A mutant high affinity site expressed in HEK293 cells coexpressing Rluc8-tagged Galphaq, N-terminal GFP-tagged Ggamma2 and Gbeta1 protein incubated for 2 mins by Gq protein activation based BRET assay; format: cell-based
[10] = molecular target: T5, Oxytocin receptor (Homo sapiens); assay: (§5) Agonist activity at human oxytocin receptor expressed in HEK293 cells coexpressing Rluc8-tagged Galphaq, N-terminal GFP-tagged Ggamma2 and Gbeta1 protein incubated for 2 mins in presence of TMH1-TAT peptide by Gq protein activation based BRET assay; format: cell-based; set-up: unit not given here
Oxytocin receptor [11] = molecular target: T6, Oxytocin receptor; assay: as §5; format: cell-based
Oxytocin receptor [12] = molecular target: T3, Oxytocin receptor; assay: Agonist activity at human oxytocin receptor C47A mutant low affinity site expressed in HEK293 cells coexpressing Rluc8-tagged Galphaq, N-terminal GFP-tagged Ggamma2 and Gbeta1 protein incubated for 2 mins by Gq protein activation based BRET assay; format: cell-based
Oxytocin receptor [13] = molecular target: T2, Oxytocin receptor; assay: Agonist activity at human oxytocin receptor V43A/C47A double mutant low affinity site expressed in HEK293 cells coexpressing Rluc8-tagged Galphaq, N-terminal GFP-tagged Ggamma2 and Gbeta1 protein incubated for 2 mins by Gq protein activation based BRET assay; format: cell-based
Oxytocin receptor [14] = molecular target: T2, Oxytocin receptor; assay: Agonist activity at human oxytocin receptor V43A/C47A double mutant high affinity site expressed in HEK293 cells coexpressing Rluc8-tagged Galphaq, N-terminal GFP-tagged Ggamma2 and Gbeta1 protein incubated for 2 mins by Gq protein activation based BRET assay; format: cell-based
Oxytocin receptor [15] = molecular target: T6, Oxytocin receptor; assay: Agonist activity at human oxytocin receptor high affinity site expressed in HEK293 cells coexpressing Rluc8-tagged Galphaq, N-terminal GFP-tagged Ggamma2 and Gbeta1 protein incubated for 2 mins by Gq protein activation based BRET assay; format: cell-based
Oxytocin receptor [16] = molecular target: T6, Oxytocin receptor; assay: Agonist activity at human oxytocin receptor high affinity site expressed in HEK293 cells coexpressing Rluc8-tagged Galphaq, N-terminal GFP-tagged Ggamma2 and Gbeta1 protein incubated for 2 mins in presence of TMH5-TAT peptide by Gq protein activation based BRET assay; format: cell-based
Oxytocin receptor [17] = molecular target: T6, Oxytocin receptor; assay: Agonist activity at human oxytocin receptor low affinity site expressed in HEK293 cells coexpressing Rluc8-tagged Galphaq, N-terminal GFP-tagged Ggamma2 and Gbeta1 protein incubated for 2 mins by Gq protein activation based BRET assay; format: cell-based
Oxytocin receptor [18] = molecular target: T6, Oxytocin receptor; assay: Agonist activity at human oxytocin receptor low affinity site expressed in HEK293 cells coexpressing Rluc8-tagged Galphaq, N-terminal GFP-tagged Ggamma2 and Gbeta1 protein incubated for 2 mins in presence of TMH5-TAT peptide by Gq protein activation based BRET assay; format: cell-based
[19] = molecular target: T5, Oxytocin receptor (Homo sapiens); assay: Displacement of [125I]-OVTA from human oxytocin receptor expressed in COS7 cell membrane; format: cell membranes
[20] = molecular target: T5, Oxytocin receptor (Homo sapiens); assay: Ratio of EC50 for human oxytocin receptor low affinity site expressed in HEK293 cells coexpressing Rluc8-tagged Galphaq, N-terminal GFP-tagged Ggamma2 and Gbeta1 protein to Ki for human oxytocin receptor low affinity site expressed in COS7 cell membrane; format: cell-based
[21] = molecular target: T5, Oxytocin receptor (Homo sapiens); assay: Ratio of EC50 for human oxytocin receptor high affinity site expressed in HEK293 cells coexpressing Rluc8-tagged Galphaq, N-terminal GFP-tagged Ggamma2 and Gbeta1 protein to Ki for human oxytocin receptor high affinity site expressed in COS7 cell membrane; format: cell-based

T3 sequence (P30559 whole entry C47A): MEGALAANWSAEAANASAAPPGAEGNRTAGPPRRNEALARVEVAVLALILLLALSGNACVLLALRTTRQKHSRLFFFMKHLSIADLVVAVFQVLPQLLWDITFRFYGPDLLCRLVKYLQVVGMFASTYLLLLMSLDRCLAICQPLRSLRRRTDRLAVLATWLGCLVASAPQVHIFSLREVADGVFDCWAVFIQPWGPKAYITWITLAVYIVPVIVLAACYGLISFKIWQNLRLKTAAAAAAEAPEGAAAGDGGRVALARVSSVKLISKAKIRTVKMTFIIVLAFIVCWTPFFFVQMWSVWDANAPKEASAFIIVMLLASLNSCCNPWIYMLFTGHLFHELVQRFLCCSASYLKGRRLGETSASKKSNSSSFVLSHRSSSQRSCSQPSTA

Compound | Emax [1] | pEC50 (Oxytocin receptor [2]) | pEC50 (Oxytocin receptor [3]) | Emax [4] | Emax [5] | pEC50 (Oxytocin receptor [6]) | Emax [7] | pEC50 (Oxytocin receptor [8]) | Emax [10] | pEC50 (Oxytocin receptor [11]) | also measured
CC[C@H](C)[C@@H]1NC(=O)[C@H](Cc2ccc(O)cc2)NC(=O)[C@@H](N)CSSC[C@@H](C(=O)N2CCC[C@H]2C(=O)N[C@@H](CC(C)C)C(=O)NCC(N)=O)NC(=O)[C@H](CC(N)=O)NC(=O)[C@H](CCC(N)=O)NC1=O | – | – | – | – | – | – | – | – | – | – | Activity (Mus musculus): Active
CC[C@H](C)[C@@H]1NC(=O)[C@H](Cc2ccc(O)cc2)NC(=O)[C@@H](N)CSSC[C@@H](C(=O)N2CCC[C@H]2C(=O)N[C@H](C(=O)NCC(N)=O)[C@@H](C)CC)NC(=O)[C@H](CC(N)=O)NC(=O)[C@H](CO)NC1=O (H-CYISNCPIG-NH2; disulfide 1-6) | – | – | – | – | – | – | – | – | – | – | Activity (Danio rerio): Active
CC[C@H](C)[C@@H]1NC(=O)[C@H](Cc2ccc(O)cc2)NC(=O)CCSSC[C@@H](C(=O)N2CCC[C@H]2C(=O)N[C@@H](CCCCNC(=O)CCCCCCCCCCC(=O)NCCCC[C@H](NC(=O)[C@@H]2CCCN2C(=O)[C@@H]2CSSCCC(=O)N[C@@H](Cc3ccc(O)cc3)C(=O)N[C@@H]([C@@H](C)CC)C(=O)N[C@@H](CCC(N)=O)C(=O)N[C@@H](CC(N)=O)C(=O)N2)C(=O)NCC(N)=O)C(=O)NCC(N)=O)NC(=O)[C@H](CC(N)=O)NC(=O)[C@H](CCC(N)=O)NC1=O (I: [Mpa]YIQNCPKG-NH2 / II: [Mpa]YIQNCPKG-NH2; disulfide I:1-I:6, II:1-II:6; linker I:8-II:8 via C12 diacid) | -0.08 | 6.74 | – | -0.13 | -0.11 | 7.70 | -0.15 | 7.85 | -0.16 | 7.42 | pEC50 (Oxytocin receptor [9]): 11.92; pEC50 (Oxytocin receptor [12]): 6.87
CC[C@H](C)[C@@H]1NC(=O)[C@H](Cc2ccc(O)cc2)NC(=O)CCSSC[C@@H](C(=O)N2CCC[C@H]2C(=O)N[C@@H](CCCCNC(=O)CCCCCCCCCCCCC(=O)NCCCC[C@H](NC(=O)[C@@H]2CCCN2C(=O)[C@@H]2CSSCCC(=O)N[C@@H](Cc3ccc(O)cc3)C(=O)N[C@@H]([C@@H](C)CC)C(=O)N[C@@H](CCC(N)=O)C(=O)N[C@@H](CC(N)=O)C(=O)N2)C(=O)NCC(N)=O)C(=O)NCC(N)=O)NC(=O)[C@H](CC(N)=O)NC(=O)[C@H](CCC(N)=O)NC1=O (I: [Mpa]YIQNCPKG-NH2 / II: [Mpa]YIQNCPKG-NH2; disulfide I:1-I:6, II:1-II:6; linker I:8-II:8 via C14 diacid) | -0.11 | – | – | -0.11 | -0.1 | 7.53 | -0.145 | 7.23 | -0.144 | 7.81 | pEC50 (Oxytocin receptor [13]): 6.06; pEC50 (Oxytocin receptor [14]): 10.96; pEC50 (Oxytocin receptor [9]): 11.85; pEC50 (Oxytocin receptor [12]): 6.52

The next lines start with results.

Emax [1] | pEC50 (Oxytocin receptor [2]) | pEC50 (Oxytocin receptor [3]) | Emax [4] | Emax [5] | pEC50 (Oxytocin receptor [6]) | Emax [7] | pEC50 (Oxytocin receptor [8]) | Emax [10] | pEC50 (Oxytocin receptor [11]) | Compound | also measured
-0.14 | 7.59 | 7.66 | -0.13 | -0.13 | 7.93 | – | – | – | – | CC[C@H](C)[C@@H]1NC(=O)[C@H](Cc2ccc(O)cc2)NC(=O)CCSSC[C@@H](C(=O)N2CCC[C@H]2C(=O)N[C@@H](CCCCNC(=O)CCCCC(=O)NCCCC[C@H](NC(=O)[C@@H]2CCCN2C(=O)[C@@H]2CSSCCC(=O)N[C@@H](Cc3ccc(O)cc3)C(=O)N[C@@H]([C@@H](C)CC)C(=O)N[C@@H](CCC(N)=O)C(=O)N[C@@H](CC(N)=O)C(=O)N2)C(=O)NCC(N)=O)C(=O)NCC(N)=O)NC(=O)[C@H](CC(N)=O)NC(=O)[C@H](CCC(N)=O)NC1=O (I: [Mpa]YIQNCPKG-NH2 / II: [Mpa]YIQNCPKG-NH2; disulfide I:1-I:6, II:1-II:6; linker I:8-II:8 via Adipoyl) | –
-0.14 | 7.39 | 7.66 | -0.14 | -0.1 | – | -0.17 | – | -0.15 | 7.76 | CC[C@H](C)[C@@H]1NC(=O)[C@H](Cc2ccc(O)cc2)NC(=O)CCSSC[C@@H](C(=O)N2CCC[C@H]2C(=O)N[C@@H](CCCCNC(=O)CCCCCCCCC(=O)NCCCC[C@H](NC(=O)[C@@H]2CCCN2C(=O)[C@@H]2CSSCCC(=O)N[C@@H](Cc3ccc(O)cc3)C(=O)N[C@@H]([C@@H](C)CC)C(=O)N[C@@H](CCC(N)=O)C(=O)N[C@@H](CC(N)=O)C(=O)N2)C(=O)NCC(N)=O)C(=O)NCC(N)=O)NC(=O)[C@H](CC(N)=O)NC(=O)[C@H](CCC(N)=O)NC1=O (I: [Mpa]YIQNCPKG-NH2 / II: [Mpa]YIQNCPKG-NH2; disulfide I:1-I:6, II:1-II:6; linker I:8-II:8 via Sebacoyl) | pEC50 (Oxytocin receptor [15]): 11.55; pEC50 (Oxytocin receptor [16]): 11.59; pEC50 (Oxytocin receptor [17]): 7.89; pEC50 (Oxytocin receptor [18]): 7.96
– | – | – | – | -0.11 | 8.39 | – | – | – | – | CCCCCCCC(=O)NCCCC[C@H](NC(=O)[C@@H]1CCCN1C(=O)[C@@H]1CSSCCC(=O)N[C@@H](Cc2ccc(O)cc2)C(=O)N[C@@H]([C@@H](C)CC)C(=O)N[C@@H](CCC(N)=O)C(=O)N[C@@H](CC(N)=O)C(=O)N1)C(=O)NCC(N)=O ([Mpa]YIQNCPK(Octanoyl)G-NH2; disulfide 1-6) | –
-0.08 | 7.48 | 8.55 | -0.15 | -0.11 to -0.1 | 8.40 | -0.14 | 9.12 | -0.15 | 9.04 | CC[C@H](C)[C@@H]1NC(=O)[C@H](Cc2ccc(O)cc2)NC(=O)CCSSC[C@@H](C(=O)N2CCC[C@H]2C(=O)N[C@@H](CCCCN)C(=O)NCC(N)=O)NC(=O)[C@H](CC(N)=O)NC(=O)[C@H](CCC(N)=O)NC1=O ([Mpa]YIQNCPKG-NH2; disulfide 1-6) | KiH [19]: 21 pM; KiL [19]: 3.35 nM; pEC50 (Oxytocin receptor [15]): 9.58; Ratio [20]: 10; pEC50 (Oxytocin receptor [17]): 7.13; Ratio [21]: 10
